In patent US11021493B2, “1,4-thiazine dioxide and 1,2,4-thiadiazine dioxide derivatives as beta-secretase inhibitors and methods of use” (AMGEN INC., priority 2016, dated 2021):

Columns and labels:
[1] = biological target: human recombinant BACE2 (Homo sapiens (Human), UniProt Q9Y5Z0); experiment: In vitro enzymatic BACE2 FRET assay; format: biochemical; settings: read-out: BACE2 Enzyme IC50
[2] = biological target: Cathepsin D (CatD) (Homo sapiens (Human), UniProt P07339); experiment: In vitro enzymatic Cathepsin D (CatD) FRET assay; format: biochemical; settings: read-out: Cat D Enzyme IC50
[3] = biological target: T1, BACE1 (Homo sapiens (Human), UniProt P56817); experiment: In vitro enzymatic BACE1 FRET assay; format: biochemical; settings: read-out: BACE1 Enzyme IC50
Target sequence in this assay (P56817 46-501): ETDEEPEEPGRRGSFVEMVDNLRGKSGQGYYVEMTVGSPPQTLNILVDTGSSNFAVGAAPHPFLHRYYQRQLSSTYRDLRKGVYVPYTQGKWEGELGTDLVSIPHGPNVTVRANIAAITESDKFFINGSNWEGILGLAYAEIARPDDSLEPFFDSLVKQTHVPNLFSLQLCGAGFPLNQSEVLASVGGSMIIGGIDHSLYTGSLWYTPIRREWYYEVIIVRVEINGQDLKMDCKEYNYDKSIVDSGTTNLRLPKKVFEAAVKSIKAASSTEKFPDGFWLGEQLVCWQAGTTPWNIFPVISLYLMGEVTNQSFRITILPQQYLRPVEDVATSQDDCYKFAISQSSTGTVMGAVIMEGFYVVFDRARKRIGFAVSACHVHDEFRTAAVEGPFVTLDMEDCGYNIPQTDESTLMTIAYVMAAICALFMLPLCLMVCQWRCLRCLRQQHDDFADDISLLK

[4] = biological target: T1, BACE1; experiment: In vitro BACE1 cell-based assay (Aβ40 in conditioned medium of cells stably expressing APP, HTRF); settings: Aβ40 in conditioned media after 24 h incubation
Target sequence in this assay (P56817 46-501, species assumed): as the sequence (P56817 46-501) above

Sequence of human recombinant BACE2 (Q9Y5Z0 63-518): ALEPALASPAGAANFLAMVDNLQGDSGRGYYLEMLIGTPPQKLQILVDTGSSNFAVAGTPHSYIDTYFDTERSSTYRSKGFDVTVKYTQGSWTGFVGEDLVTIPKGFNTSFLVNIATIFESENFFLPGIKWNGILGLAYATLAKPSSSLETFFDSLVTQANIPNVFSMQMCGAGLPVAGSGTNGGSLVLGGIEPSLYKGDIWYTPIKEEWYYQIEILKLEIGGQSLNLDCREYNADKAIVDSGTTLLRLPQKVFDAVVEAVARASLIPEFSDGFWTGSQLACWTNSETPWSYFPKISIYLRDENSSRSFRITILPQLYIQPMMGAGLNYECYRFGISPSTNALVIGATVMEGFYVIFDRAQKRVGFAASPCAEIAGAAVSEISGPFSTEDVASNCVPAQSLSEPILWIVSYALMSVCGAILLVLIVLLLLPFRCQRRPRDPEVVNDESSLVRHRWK
Sequence of Cathepsin D (CatD) (P07339 65-412, species assumed): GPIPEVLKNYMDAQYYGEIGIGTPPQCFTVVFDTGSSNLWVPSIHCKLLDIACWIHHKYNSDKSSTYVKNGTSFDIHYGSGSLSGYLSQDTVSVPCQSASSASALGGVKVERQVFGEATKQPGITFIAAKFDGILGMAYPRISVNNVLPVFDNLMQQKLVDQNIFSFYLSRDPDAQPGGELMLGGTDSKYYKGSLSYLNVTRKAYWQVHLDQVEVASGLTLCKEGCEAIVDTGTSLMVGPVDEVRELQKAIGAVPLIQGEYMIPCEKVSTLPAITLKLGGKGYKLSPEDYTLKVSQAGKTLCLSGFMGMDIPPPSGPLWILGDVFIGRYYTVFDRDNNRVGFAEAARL

Row | Compound | IC50 [1] [nM] | IC50 [2] [nM] | IC50 [3] [nM] | IC50 [4] [nM]
1 | COc1cc(/C(F)=C/c2ccc(F)c([C@]3(C)CS(=O)(=O)N(C)C(N)=N3)c2)ncc1Cl [Example 230, (R,Z)-3-amino-5-(5-(2-(5-chloro-4-methoxypyridin-2-yl)-2-fluorovinyl)-2-fluorophenyl)-2,5-dimethyl-5,6-dihydro-2H-1,2,4-thiadiazine 1,1-dioxide] | 24 | 111000 | 179 | 656
2 | CC1(C)C(N)=N[C@](CF)(c2cc(/C=C(\F)c3ccc(C#N)cn3)ccc2F)CS1(=O)=O [Example 188, (S,Z)-6-(2-(3-(5-amino-3-(fluoromethyl)-6,6-dimethyl-1,1-dioxido-3,6-dihydro-2H-1,4-thiazin-3-yl)-4-fluorophenyl)-1-fluorovinyl)nicotinonitrile] | 57 | 155000 | 13 | 222
3 | CC#C[C@H](C)Oc1cnc(/C(F)=C/c2ccc(F)c([C@]3(C)CS(=O)(=O)C(C)(C)C(N)=N3)c2)cn1 (single isomer, unassigned) [Example 208] | 107 | 79500 | 1 | 5
4 | COC(C)COc1cnc(/C(F)=C/c2ccc(F)c([C@]3(C)CS(=O)(=O)N(C)C(N)=N3)c2)cn1 (stereo partly drawn) [Example 172, (R)-3-amino-5-(2-fluoro-5-((Z)-2-fluoro-2-(5-(2-methoxypropoxy)pyrazin-2-yl)vinyl)phenyl)-2,5-dimethyl-5,6-dihydro-2H-1,2,4-thiadiazine 1,1-dioxide] | 84 | 67600 | 25 | 23
5 | CN1C(N)=N[C@](C)(c2cc(/C=C(\F)c3ccc(F)cn3)ccc2F)CS1(=O)=O [Example 240, (5R)-5-(2-fluoro-5-((Z)-2-fluoro-2-(5-fluoro-2-pyridinyl)ethenyl)phenyl)-2,5-dimethyl-5,6-dihydro-2H-1,2,4-thiadiazin-3-amine 1,1-dioxide] | 8 | 375000 | 34 | 67
6 | CC1(C)C(N)=N[C@](C)(c2cc(/C=C(\F)c3cnc(OCCC(F)(F)F)cn3)ccc2F)CS1(=O)=O [Example 142, (R,Z)-5-amino-3-(2-fluoro-5-(2-fluoro-2-(5-(3,3,3-trifluoropropoxy)pyrazin-2-yl)vinyl)phenyl)-3,6,6-trimethyl-3,6-dihydro-2H-1,4-thiazine 1,1-dioxide] | 425 | 90500 | 193 | 739
7 | CC#C[C@@H](C)Oc1cnc(/C(F)=C/c2ccc(F)c([C@]3(C)CS(=O)(=O)C(C)(C)C(N)=N3)c2)cn1 (single isomer, unassigned) [Example 207] | 519 | 57500 | 507 | 2530
8 | CC1(C)C(N)=N[C@](C)(c2cc(/C=C(\F)c3ccc(C#N)cn3)cc(F)c2F)CS1(=O)=O [Example 192, (R,Z)-6-(2-(3-(5-amino-3,6,6-trimethyl-1,1-dioxido-3,6-dihydro-2H-1,4-thiazin-3-yl)-4,5-difluorophenyl)-1-fluorovinyl)nicotinonitrile] | 46 | 76100 | 12 | 35
9 | C[C@@]1(c2cc(/C=C(\F)c3ccc(C#N)cn3)ccc2F)CS(=O)(=O)C2(CCC2)C(N)=N1 [Example 103, (R,Z)-6-(2-(3-(9-amino-7-methyl-5,5-dioxido-5-thia-8-azaspiro[3.5]non-8-en-7-yl)-4-fluorophenyl)-1-fluorovinyl)nicotinonitrile] | 50 | 94700 | 3 | 39
10 | CN1C(N)=N[C@](C)(c2cc(/C=C(\F)c3cnc(Cl)cn3)ccc2F)C(C)(C)S1(=O)=O [Example 182, (R,Z)-3-amino-5-(5-(2-(5-chloropyrazin-2-yl)-2-fluorovinyl)-2-fluorophenyl)-2,5,6,6-tetramethyl-5,6-dihydro-2H-1,2,4-thiadiazine 1,1-dioxide] | 76 | 217000 | 39 | 318
11 | CC1(C)C(N)=N[C@](C)(c2cc(/C=C(\F)c3cnc(C#N)cn3)ccc2F)CS1(=O)=O [Example 170, (R,Z)-5-(2-(3-(5-amino-3,6,6-trimethyl-1,1-dioxido-3,6-dihydro-2H-1,4-thiazin-3-yl)-4-fluorophenyl)-1-fluorovinyl)pyrazine-2-carbonitrile] | 17 | 645000 | 2 | 5
12 | CN1C(N)=N[C@](C)(c2cc(/C=C(\F)c3ccc(Br)cn3)cc(F)c2F)CS1(=O)=O [Example 105, (R,Z)-3-amino-5-(5-(2-(5-bromopyridin-2-yl)-2-fluorovinyl)-2,3-difluorophenyl)-2,5-dimethyl-5,6-dihydro-2H-1,2,4-thiadiazine 1,1-dioxide] | 9 | 35800 | 12 | 23
13 | CC1(C)C(N)=N[C@](C)(c2cc(/C=C(\F)c3ncc(C#N)cc3Cl)ccc2F)CS1(=O)=O [Example 268, (R,Z)-6-(2-(3-(5-amino-3,6,6-trimethyl-1,1-dioxido-3,6-dihydro-2H-1,4-thiazin-3-yl)-4-fluorophenyl)-1-fluorovinyl)-5-chloronicotinonitrile] | 12 | 136000 | 7 | 35
14 | CC#CCOc1cnc(/C(F)=C/c2ccc(F)c([C@]3(C)CS(=O)(=O)C(C)(C)C(N)=N3)c2)cn1 [Example 154, (R,Z)-5-amino-3-(5-(2-(5-(but-2-yn-1-yloxy)pyrazin-2-yl)-2-fluorovinyl)-2-fluorophenyl)-3,6,6-trimethyl-3,6-dihydro-2H-1,4-thiazine 1,1-dioxide] | 34 | 109000 | 1 | 2
15 | CC#C[C@@H](CC)Oc1cnc(/C(F)=C/c2ccc(F)c([C@]3(C)CS(=O)(=O)C(C)(C)C(N)=N3)c2)cn1 (single isomer, unassigned) [Example 198] | 371 | 38300 | 113 | 173
16 | CC1(C)C(N)=N[C@](C)(c2cc(/C=C(\F)c3cnc(OCc4ccccc4)cn3)cnc2F)CS1(=O)=O [Example 209, (R,Z)-5-amino-3-(5-(2-(5-(benzyloxy)pyrazin-2-yl)-2-fluorovinyl)-2-fluoropyridin-3-yl)-3,6,6-trimethyl-3,6-dihydro-2H-1,4-thiazine 1,1-dioxide] | 311 | 46500 | 124 | 2520
17 | C[C@H]1COc2cnc(/C(F)=C/c3ccc(F)c([C@]4(C)CS(=O)(=O)N(C)C(N)=N4)c3)nc2O1 [Example 236, (R)-3-amino-5-(2-fluoro-5-((Z)-2-fluoro-2-((S)-7-methyl-6,7-dihydro-[1,4]dioxino[2,3-d]pyrimidin-2-yl)vinyl)phenyl)-2,5-dimethyl-5,6-dihydro-2H-1,2,4-thiadiazine 1,1-dioxide] | 2360 | 55200 | 1120 | 410
18 | CCCOc1cnc(/C(F)=C/c2ccc(F)c([C@@]3(C)N=C(N)[C@@]4(CF)CC[C@@H]3S4(=O)=O)c2)cn1 [Example 135, (1R,4R,5S)-2-amino-4-(2-fluoro-5-((Z)-2-fluoro-2-(5-propoxypyrazin-2-yl)vinyl)phenyl)-1-(fluoromethyl)-4-methyl-8-thia-3-azabicyclo[3.2.1]oct-2-ene 8,8-dioxide] | 120 | > 400000 | 86 | 866
19 | CC1(C)C(N)=N[C@](C)(c2cc(/C=C(\F)c3ccc(C(F)(F)F)cn3)ccc2F)CS1(=O)=O [Example 265, (R,Z)-5-amino-3-(2-fluoro-5-(2-fluoro-2-(5-(trifluoromethyl)pyridin-2-yl)vinyl)phenyl)-3,6,6-trimethyl-3,6-dihydro-2H-1,4-thiazine 1,1-dioxide] | 43 | 89400 | 8 | 10
20 | Cc1cnc(COc2cnc(/C(F)=C/c3ccc(F)c([C@@]4(C)N=C(N)N(C)S(=O)(=O)C45CC5)c3)cn2)o1 [Example 169, (8R)-8-(2-fluoro-5-((Z)-2-fluoro-2-(5-((5-methyl-1,3-oxazol-2-yl)methoxy)-2-pyrazinyl)ethenyl)phenyl)-5,8-dimethyl-4-thia-5,7-diazaspiro[2.5]oct-6-en-6-amine 4,4-dioxide] | 907 | 698000 | 66 | 124
21 | COc1cnc(/C(F)=C/c2ccc(F)c([C@]3(C)CS(=O)(=O)N(C)C(N)=N3)c2)cn1 [Example 241, (5R)-5-(2-fluoro-5-((Z)-2-fluoro-2-(5-methoxy-2-pyrazinyl)ethenyl)phenyl)-2,5-dimethyl-5,6-dihydro-2H-1,2,4-thiadiazin-3-amine 1,1-dioxide] | 75 | 91300 | 107 | 168
22 | CCOc1cnc(/C(F)=C/c2ccc(F)c([C@@]3(C)N=C(N)[C@@]4(CF)CC[C@@H]3S4(=O)=O)c2)cn1 [Example 122, (1R,4R,5S)-2-amino-4-(5-((Z)-2-(5-ethoxypyrazin-2-yl)-2-fluorovinyl)-2-fluorophenyl)-1-(fluoromethyl)-4-methyl-8-thia-3-azabicyclo[3.2.1]oct-2-ene 8,8-dioxide] | 194 | > 400000 | 54 | 527
23 | CN1C(N)=N[C@](C)(c2cc(/C=C(\F)C3CCOCC3)cc(F)c2F)CS1(=O)=O [Example 110, (R,Z)-3-amino-5-(2,3-difluoro-5-(2-fluoro-2-(tetrahydro-2H-pyran-4-yl)vinyl)phenyl)-2,5-dimethyl-5,6-dihydro-2H-1,2,4-thiadiazine 1,1-dioxide] | 963 | 194000 | 709 | 631
